Experimental data as given in ChEMBL document CHEMBL5678795 (Eur J Pharmacol, 1999).
The source made the active and inactive calls. The rule behind the calls is not given here.

Assays:
[1] = molecular target: Type-1 angiotensin II receptor (Homo sapiens) (UniProt P30556); assay: Displacement of [125I][Sar1,Ile8]-AT-II from human recombinant angiotensin AT1 receptor at 10 uM incubated for 120 mins by radiometric based scintillation counter assay relative to control
[2] = molecular target: Beta-2 adrenergic receptor (Homo sapiens) (UniProt P07550); assay: Displacement of [3H](-)CGP 12177 from human recombinant beta2-adrenoceptor at 10 uM incubated for 120 mins by radiometric based scintillation counter assay relative to control
Homo sapiens [3] = organism: Homo sapiens; assay: Displacement of [3H]Dofetilide from human recombinant voltage-dependent K+ channel at 10 uM incubated for 60 mins by radiometric based scintillation counter assay relative to control
[4] = molecular target: T1, Endothelin-1 receptor (Rattus norvegicus) (UniProt P26684); assay: Antagonist activity at ETA receptor in rat MMQ cells assessed as inhibition of phosphatidylinositol hydrolysis in presence of myo-[3H] inositol by anion exchange chromatography; format: functional, cell-based
T1 sequence (whole entry): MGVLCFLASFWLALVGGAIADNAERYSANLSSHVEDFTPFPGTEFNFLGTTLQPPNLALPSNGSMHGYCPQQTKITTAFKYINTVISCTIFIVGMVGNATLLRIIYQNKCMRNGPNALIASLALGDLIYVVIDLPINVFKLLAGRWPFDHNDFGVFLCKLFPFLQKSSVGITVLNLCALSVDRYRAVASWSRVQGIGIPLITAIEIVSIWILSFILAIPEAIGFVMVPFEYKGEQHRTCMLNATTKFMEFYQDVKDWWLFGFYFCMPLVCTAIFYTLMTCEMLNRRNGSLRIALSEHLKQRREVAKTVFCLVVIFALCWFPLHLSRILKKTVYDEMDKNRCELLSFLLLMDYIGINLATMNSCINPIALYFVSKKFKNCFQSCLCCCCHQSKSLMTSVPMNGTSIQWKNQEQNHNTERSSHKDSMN

[5] = molecular target: T1, Endothelin-1 receptor (Rattus norvegicus); assay: In vivo antagonist activity to ETA receptor in endothelin-1 induced Sprague-Dawley rat assessed as reduction of vasopressor response at 30 mg/kg, po administered for 24 hrs; format: functional, organism-based
[6] = molecular target: Sodium-dependent dopamine transporter (Homo sapiens) (UniProt Q01959); assay: Displacement of [3H]BTCP from human recombinant dopamine receptor at 10 uM incubated for 120 mins by radiometric based scintillation counter assay relative to control
[7] = molecular target: P2X receptor (Rattus norvegicus) (UniProt P51579+P49653+P51578+Q64663+P47824+P51577+P49654); assay: Displacement of [3H]alpha,beta -MeATP from rat bladder P2X-purinergic receptor at 10 uM incubated for 120 mins by radiometric based scintillation counter assay relative to control; format: protein assay
[8] = molecular target: T1, Endothelin-1 receptor (Rattus norvegicus); assay: In vivo antagonist activity to ETA receptor in endothelin-1 induced Sprague-Dawley rat assessed as inhibition of peak blood pressure administered for 1 to 4 hrs; format: functional, organism-based; settings: dose 3-100 mg/kg, route po, time 1-4 hrs
[9] = molecular target: Muscarinic acetylcholine receptor M3 (Homo sapiens) (UniProt P20309); assay: Displacement of [3H]4-DAMP from human recombinant muscarinic M3 receptor at 10 uM incubated for 60 mins by radiometric based scintillation counter assay relative to control
[10] = molecular target: 5-hydroxytryptamine receptor 2A (Homo sapiens) (UniProt P28223); assay: Displacement of [3H]ketanserin from human recombinant 5-Hydroxytryptamine 2A at 10 uM incubated for 60 mins by radiometric based scintillation counter assay relative to control
[11] = molecular target: T2, Endothelin receptor type B (Homo sapiens, UniProt P24530); assay: Displacement of [125I]endhothelin-3 from human ETB receptor stably expressed in CHO cells Membrane at 25 degC incubated for 3 hrs by radioligand competition binding assay; format: cell membranes
T2 sequence (P24530 whole entry): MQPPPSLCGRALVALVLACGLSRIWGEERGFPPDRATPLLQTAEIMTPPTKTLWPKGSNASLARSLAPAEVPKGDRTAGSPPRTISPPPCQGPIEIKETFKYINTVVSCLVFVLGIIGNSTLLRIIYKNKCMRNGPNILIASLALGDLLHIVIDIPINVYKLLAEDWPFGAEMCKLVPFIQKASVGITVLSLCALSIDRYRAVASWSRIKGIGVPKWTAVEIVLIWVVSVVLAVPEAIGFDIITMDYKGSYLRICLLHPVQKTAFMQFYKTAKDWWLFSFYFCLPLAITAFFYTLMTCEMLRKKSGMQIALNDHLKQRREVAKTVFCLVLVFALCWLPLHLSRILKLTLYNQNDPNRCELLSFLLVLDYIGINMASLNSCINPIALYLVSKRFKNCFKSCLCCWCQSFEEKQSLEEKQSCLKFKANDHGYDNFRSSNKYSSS

Homo sapiens [12] = organism: Homo sapiens; assay: Displacement of [3H] PK 11195 from central-type benzodiazepine (unknown origin) at 10 uM incubated for 15 mins by radiometric based scintillation counter assay relative to control
[13] = molecular target: Cholecystokinin receptor type A (Homo sapiens) (UniProt P32238); assay: Displacement of [125I]CCK-8s from human recombinant cholecystokinin A receptor at 10 uM incubated for 60 mins by radiometric based scintillation counter assay relative to control
[14] = molecular target: T1, Endothelin-1 receptor (Rattus norvegicus); assay: Antagonist activity to ETA receptor in endothelin-1 stimulated Sprague-Dawley rat aorta assessed as induction of vessel ring contraction upto 10 uM preincubated for 15 mins; format: functional, tissue-based
[15] = molecular target: Prostacyclin receptor (Homo sapiens) (UniProt P43119); assay: Displacement of [3H]iloprost from human recombinant Prostaglandin I2 receptor at 10 uM incubated for 60 mins by radiometric based scintillation counter assay relative to control
Homo sapiens [16] = organism: Homo sapiens; assay: Inhibition of Ca2+ dependent potassium channel (unknown origin) at 10 uM by radioligand binding assay relative to control
[17] = Oral bioavailability in Beagle dog at 5 mg/kg administered for 12 hrs by HPLC analysis; format: ADME, organism-based, Canis lupus familiaris; settings: in vivo
[18] = molecular target: 5-hydroxytryptamine receptor 1A (Homo sapiens) (UniProt P08908); assay: Displacement of [3H]8-OH-DPAT from human recombinant 5-Hydroxytryptamine 1A at 10 uM incubated for 60 mins by radiometric based scintillation counter assay relative to control
[19] = molecular target: D(2) dopamine receptor (Homo sapiens) (UniProt P14416); assay: Displacement of [3H]methyl-spiperone from human recombinant dopamine D2 receptor at 10 uM incubated for 60 mins by radiometric based scintillation counter assay relative to control
[20] = molecular target: Translocator protein (Homo sapiens) (UniProt P30536); assay: Displacement of [3H] PK 11195 from peripheral-type benzodiazepine (unknown origin) at 10 uM incubated for 15 mins by radiometric based scintillation counter assay relative to control
Homo sapiens [21] = organism: Homo sapiens; assay: Inhibition of Thromboxane A2 receptor/prostaglandin H2 receptor (unknown origin) at 10 uM by radioligand binding assay relative to control
[22] = molecular target: Histamine H1 receptor (Homo sapiens) (UniProt P35367); assay: Displacement of [3H]pyrilamine from human recombinant central-type histamine H1 receptor at 10 uM incubated for 60 mins by radiometric based scintillation counter assay relative to control
[23] = molecular target: Adenosine receptor A3 (Homo sapiens) (UniProt P0DMS8); assay: Displacement of [125I]AB-MECA from human recombinant adenosine A3 receptor at 10 uM incubated for 120 mins by radiometric based scintillation counter assay relative to control

Chain of Histamine H1 receptor (Homo sapiens) (P35367 whole entry): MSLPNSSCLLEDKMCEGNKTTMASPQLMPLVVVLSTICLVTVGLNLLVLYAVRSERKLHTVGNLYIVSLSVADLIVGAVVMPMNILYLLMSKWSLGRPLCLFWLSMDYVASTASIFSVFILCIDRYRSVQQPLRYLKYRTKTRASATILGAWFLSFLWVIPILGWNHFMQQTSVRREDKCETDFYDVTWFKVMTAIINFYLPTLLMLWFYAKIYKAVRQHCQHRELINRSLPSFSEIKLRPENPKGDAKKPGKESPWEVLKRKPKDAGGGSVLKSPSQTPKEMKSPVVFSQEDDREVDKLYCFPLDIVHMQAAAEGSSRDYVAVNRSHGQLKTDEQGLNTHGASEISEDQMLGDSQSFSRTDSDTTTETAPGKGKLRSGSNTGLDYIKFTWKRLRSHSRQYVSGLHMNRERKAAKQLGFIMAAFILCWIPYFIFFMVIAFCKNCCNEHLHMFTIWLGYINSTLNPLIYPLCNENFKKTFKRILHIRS
Chain of Translocator protein (Homo sapiens) (P30536 whole entry): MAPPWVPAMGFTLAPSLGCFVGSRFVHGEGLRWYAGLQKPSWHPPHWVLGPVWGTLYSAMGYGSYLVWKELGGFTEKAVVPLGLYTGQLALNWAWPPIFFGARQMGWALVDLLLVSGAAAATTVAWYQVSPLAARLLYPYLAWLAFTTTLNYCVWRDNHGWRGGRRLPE
Chain of Cholecystokinin receptor type A (Homo sapiens) (P32238 whole entry): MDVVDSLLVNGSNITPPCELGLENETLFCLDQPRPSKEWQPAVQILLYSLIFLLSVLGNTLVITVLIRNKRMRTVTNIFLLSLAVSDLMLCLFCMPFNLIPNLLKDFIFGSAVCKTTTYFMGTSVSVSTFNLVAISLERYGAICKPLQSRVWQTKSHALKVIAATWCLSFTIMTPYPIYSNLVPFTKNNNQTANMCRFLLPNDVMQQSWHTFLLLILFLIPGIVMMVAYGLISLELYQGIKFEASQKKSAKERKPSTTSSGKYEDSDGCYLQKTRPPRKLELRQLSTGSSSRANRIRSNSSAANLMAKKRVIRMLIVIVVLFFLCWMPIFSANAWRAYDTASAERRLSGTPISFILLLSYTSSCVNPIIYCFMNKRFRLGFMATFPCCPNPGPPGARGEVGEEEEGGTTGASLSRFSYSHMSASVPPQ
Chain of Beta-2 adrenergic receptor (Homo sapiens) (P07550 whole entry, looked up): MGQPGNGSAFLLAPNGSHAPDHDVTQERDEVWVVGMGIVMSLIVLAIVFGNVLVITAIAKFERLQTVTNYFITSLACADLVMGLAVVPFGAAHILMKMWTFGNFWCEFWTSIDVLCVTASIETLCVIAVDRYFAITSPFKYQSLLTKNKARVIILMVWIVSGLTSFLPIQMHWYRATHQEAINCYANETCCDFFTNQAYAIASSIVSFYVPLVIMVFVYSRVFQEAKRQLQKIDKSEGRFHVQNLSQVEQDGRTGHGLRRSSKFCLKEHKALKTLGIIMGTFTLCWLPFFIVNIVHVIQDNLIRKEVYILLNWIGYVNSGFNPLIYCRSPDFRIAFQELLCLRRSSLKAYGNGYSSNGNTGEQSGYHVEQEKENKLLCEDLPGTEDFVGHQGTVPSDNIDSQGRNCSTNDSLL
Chain of Type-1 angiotensin II receptor (Homo sapiens) (P30556 whole entry): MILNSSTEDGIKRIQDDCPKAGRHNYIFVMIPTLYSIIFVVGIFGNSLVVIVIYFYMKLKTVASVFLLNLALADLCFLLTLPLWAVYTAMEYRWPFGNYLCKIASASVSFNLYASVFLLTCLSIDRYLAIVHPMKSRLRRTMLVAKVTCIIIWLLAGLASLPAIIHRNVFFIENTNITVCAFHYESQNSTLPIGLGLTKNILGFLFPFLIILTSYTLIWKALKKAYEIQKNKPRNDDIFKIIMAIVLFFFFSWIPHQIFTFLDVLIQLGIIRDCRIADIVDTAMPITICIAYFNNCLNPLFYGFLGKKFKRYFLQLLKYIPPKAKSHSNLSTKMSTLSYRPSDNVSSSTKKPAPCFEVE
Chain of Sodium-dependent dopamine transporter (Homo sapiens) (Q01959 whole entry): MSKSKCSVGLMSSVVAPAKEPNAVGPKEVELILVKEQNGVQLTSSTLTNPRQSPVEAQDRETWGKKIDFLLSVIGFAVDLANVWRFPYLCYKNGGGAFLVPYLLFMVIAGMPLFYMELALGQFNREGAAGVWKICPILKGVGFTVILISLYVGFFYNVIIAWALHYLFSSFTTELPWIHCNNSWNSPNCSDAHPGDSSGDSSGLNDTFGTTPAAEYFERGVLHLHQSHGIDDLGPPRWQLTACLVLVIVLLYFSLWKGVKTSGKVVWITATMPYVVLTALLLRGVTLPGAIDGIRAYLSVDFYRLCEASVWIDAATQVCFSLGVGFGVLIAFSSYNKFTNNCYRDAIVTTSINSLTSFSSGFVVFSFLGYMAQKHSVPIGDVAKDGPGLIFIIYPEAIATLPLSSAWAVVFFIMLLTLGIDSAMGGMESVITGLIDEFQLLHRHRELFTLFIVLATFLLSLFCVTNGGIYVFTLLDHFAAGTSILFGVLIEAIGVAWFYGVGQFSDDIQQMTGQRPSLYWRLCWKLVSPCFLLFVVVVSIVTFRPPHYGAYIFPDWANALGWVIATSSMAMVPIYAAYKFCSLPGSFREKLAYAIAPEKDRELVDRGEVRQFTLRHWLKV
Chain of 5-hydroxytryptamine receptor 2A (Homo sapiens) (P28223 whole entry): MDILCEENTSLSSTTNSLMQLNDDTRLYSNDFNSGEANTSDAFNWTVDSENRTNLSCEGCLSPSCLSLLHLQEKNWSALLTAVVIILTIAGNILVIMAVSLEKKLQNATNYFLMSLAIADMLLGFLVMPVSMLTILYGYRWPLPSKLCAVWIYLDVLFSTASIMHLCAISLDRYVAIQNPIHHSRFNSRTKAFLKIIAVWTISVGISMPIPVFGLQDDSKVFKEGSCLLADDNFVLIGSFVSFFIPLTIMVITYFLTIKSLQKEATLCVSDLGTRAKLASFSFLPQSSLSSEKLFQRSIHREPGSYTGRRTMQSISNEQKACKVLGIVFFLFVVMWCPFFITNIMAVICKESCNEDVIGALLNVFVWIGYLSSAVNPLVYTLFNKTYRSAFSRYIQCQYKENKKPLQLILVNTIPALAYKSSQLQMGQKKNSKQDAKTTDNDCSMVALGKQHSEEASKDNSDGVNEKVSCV
Chain of D(2) dopamine receptor (Homo sapiens) (P14416 whole entry): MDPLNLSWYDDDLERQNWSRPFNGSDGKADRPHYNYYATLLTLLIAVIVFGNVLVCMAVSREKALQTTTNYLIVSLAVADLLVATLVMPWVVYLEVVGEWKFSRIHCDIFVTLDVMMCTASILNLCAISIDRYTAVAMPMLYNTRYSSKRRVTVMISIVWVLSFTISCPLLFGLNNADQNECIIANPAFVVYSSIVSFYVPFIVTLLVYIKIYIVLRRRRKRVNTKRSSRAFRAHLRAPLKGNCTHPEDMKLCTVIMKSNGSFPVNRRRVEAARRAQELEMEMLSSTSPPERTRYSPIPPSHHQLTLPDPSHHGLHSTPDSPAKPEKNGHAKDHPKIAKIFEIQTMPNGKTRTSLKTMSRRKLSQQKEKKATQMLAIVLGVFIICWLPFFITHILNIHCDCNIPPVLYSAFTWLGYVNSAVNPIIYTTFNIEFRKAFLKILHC
Chain of Muscarinic acetylcholine receptor M3 (Homo sapiens) (P20309 whole entry, looked up): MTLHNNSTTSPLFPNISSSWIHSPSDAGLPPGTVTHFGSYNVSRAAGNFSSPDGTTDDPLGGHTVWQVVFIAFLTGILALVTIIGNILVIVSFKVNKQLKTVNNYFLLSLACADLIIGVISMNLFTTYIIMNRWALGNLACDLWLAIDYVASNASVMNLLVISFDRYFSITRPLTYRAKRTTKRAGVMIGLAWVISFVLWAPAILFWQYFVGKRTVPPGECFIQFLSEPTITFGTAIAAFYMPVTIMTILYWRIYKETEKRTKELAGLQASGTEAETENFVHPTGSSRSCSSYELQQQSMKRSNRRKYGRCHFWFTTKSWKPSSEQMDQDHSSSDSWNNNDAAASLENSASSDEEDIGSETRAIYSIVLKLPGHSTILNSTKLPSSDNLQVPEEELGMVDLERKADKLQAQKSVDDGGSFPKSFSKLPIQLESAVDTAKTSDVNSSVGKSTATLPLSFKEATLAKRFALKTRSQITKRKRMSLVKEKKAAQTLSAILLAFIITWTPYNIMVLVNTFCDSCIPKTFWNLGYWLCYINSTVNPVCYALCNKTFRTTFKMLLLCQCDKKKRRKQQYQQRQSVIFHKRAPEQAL
Chain of Prostacyclin receptor (Homo sapiens) (P43119 whole entry): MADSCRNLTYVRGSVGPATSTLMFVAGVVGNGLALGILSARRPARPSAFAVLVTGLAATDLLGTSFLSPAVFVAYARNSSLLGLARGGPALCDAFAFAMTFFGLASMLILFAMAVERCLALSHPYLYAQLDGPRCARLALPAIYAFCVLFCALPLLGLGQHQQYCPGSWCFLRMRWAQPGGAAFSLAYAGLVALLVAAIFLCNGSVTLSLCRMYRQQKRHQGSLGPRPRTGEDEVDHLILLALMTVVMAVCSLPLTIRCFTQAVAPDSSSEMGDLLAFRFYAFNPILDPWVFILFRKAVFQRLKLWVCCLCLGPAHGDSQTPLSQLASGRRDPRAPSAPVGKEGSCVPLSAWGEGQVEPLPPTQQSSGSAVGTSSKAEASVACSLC
Chain of 5-hydroxytryptamine receptor 1A (Homo sapiens) (P08908 whole entry): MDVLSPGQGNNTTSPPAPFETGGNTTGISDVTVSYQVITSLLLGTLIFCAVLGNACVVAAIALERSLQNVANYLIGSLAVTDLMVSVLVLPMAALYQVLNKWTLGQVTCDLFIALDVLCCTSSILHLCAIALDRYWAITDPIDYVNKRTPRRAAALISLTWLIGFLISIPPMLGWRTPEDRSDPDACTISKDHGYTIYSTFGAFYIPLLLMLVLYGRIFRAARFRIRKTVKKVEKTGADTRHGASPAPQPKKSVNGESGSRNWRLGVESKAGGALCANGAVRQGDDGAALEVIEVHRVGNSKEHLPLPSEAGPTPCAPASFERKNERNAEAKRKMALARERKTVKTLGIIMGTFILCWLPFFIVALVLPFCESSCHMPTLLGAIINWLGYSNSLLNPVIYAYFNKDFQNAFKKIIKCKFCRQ

CCCCN(CCCC)C(=O)CN1[C@H](c2cc(OC)c3c(c2)OCO3)C[C@@H](C(=O)O)[C@@H]1CC(C)(C)CCC
inhibition [1]: < 10%
inhibition [2]: < 10%
inhibition (Homo sapiens [3]): < 10%
Activity [4]: inactive
Activity [5]: inactive
inhibition [6]: < 10%
inhibition [7]: 37%
Activity [8]: Dose-Dependent Effect
inhibition [9]: < 10%
inhibition [10]: < 10%
IC50 [11]: 15.4 µM
inhibition (Homo sapiens [12]): < 10%
inhibition [13]: < 10%
Activity [14]: inactive
inhibition [15]: 15%
inhibition (Homo sapiens [16]): < 10%
bioavailability [17]: 19.9%
inhibition [18]: < 10%
inhibition [19]: < 10%
inhibition [20]: < 10%
inhibition (Homo sapiens [21]): 16%
inhibition [22]: < 10%
inhibition [23]: 32%
